Assay results published in ChEMBL document CHEMBL4699598, “Discovery of Novel Substituted N-(4-Amino-2-chlorophenyl)-5-chloro-2-hydroxybenzamide Analogues as Potent Human Adenovirus Inhibitors” (J Med Chem, 2020).

Legend:
[1] = tested on: Human adenovirus 5; test: Antiviral activity against GFP-fused Human adenovirus 5 infected in 293beta5 cells assessed as inhibition of plaque formation incubated for 7 days by GFP reporter gene assay; format: functional, organism-based; settings: Human mastadenovirus C, HEK293, 168 h
[2] = Cytotoxicity against human A549 cells assessed as reduction in cell viability incubated for 48 hrs by alamarBlue assay; format: cell-based
[3] = Selectivity index, ratio of CC50 for cytotoxicity against human A549 cells assessed as reduction in cell viability incubated for 48 hrs by alamarBlue assay to IC50 for antiviral activity against Human adenovirus 5 infected in 293beta5 cells assessed as inhibition of plaque formation incubated for 7 days by GFP reporter gene assay; format: toxicity, cell-based; settings: read-out: Ratio CC50/IC50
[4] = tested on: Human adenovirus 5; test: Antiviral activity against Human adenovirus 5 infected in 293beta5 cells assessed as inhibition of plaque formation at 10 uM incubated for 7 days by GFP reporter gene assay relative to control; format: functional; settings: Human mastadenovirus C, HEK293, 168 h, time 7 day
[5] = Toxicity against cyclophosphamide-immunosuppressed golden syrian hamster assessed as loss of body weight at 1 mg/kg, administered for 14 days; format: organism-based, Mesocricetus auratus; settings: in vivo, 336 h, time 14 day
[6] = tested on: Human adenovirus 5; test: Antiviral activity against Human adenovirus 5 infected in 293beta5 cells assessed as inhibition of virus infection at 10 fold IC50 measured after 60 mins by GFP reporter gene assay relative to control; format: functional, HEK293; settings: 1 h
[7] = tested on: Human betaherpesvirus 5; test: Antiviral activity against human cytomegalovirus infected in HFF cells assessed as inhibition of viral replication by measuring number of DNA copies at 5 uM incubated for 72 hrs by RT-PCR analysis (reference value: 100 +/- 25.56 %); format: functional; parameters: scale not given: the % may be the effect or the level left
[8] = tested on: Human adenovirus 5; test: Antiviral activity against WT-Human adenovirus 5 infected in A549 cells assessed as fold reduction in virus yield at 10 fold of IC50 after 48 hrs endpoint dilution method; format: functional
[9] = tested on: Human adenovirus 5; test: Antiviral activity against wild-type Human adenovirus 5 infected in human A549 cells assessed as inhibition of viral entry by measuring nuclear associated viral genome level at 10 fold IC50 incubated for 45 mins by RT-PCR analysis (reference value: 100 +/- 1.07 %); format: functional; parameters: scale not given: the % may be the effect or the level left; settings: 0.75 h
[10] = tested on: Human adenovirus 5; test: Antiviral activity against wild-type Human adenovirus 5 infected in human A549 cells assessed as inhibition of viral DNA replication by measuring number of viral DNA copies at 5 uM after 24 hrs by RT-qPCR analysis (reference value: 100 +/- 0.16 %); format: functional; parameters: scale not given: the % may be the effect or the level left

Row | IC50 [1] [µM] | Compound | CC50 at 48 h [2] [µM] | selectivity ratio at 48 h [3] | inhibition at 10 µM [4] [%] | other results
1 | 1.66 | O=C(Nc1ccc(NCc2cnccc2Cl)cc1Cl)c1cc(Cl)ccc1O | 126 | 75.7 | 100 | 
2 | 0.84 | O=C(Nc1ccc(NC2CCCC2)c(Cl)c1)c1cc(Cl)ccc1O | 16.9 | 20.1 | 100 | 
3 | 1.72 | CS(=O)(=O)Nc1ccc(Cl)cc1C(=O)Nc1ccc(NC2CCCC2)cc1Cl | 35.4 | 20.6 |  | 
4 |  | Nc1ccc(NC(=O)c2cc(Cl)ccc2O)c(Cl)c1 |  |  | 0 | 
5 | 1.21 | CCCCCCCCC(C)Nc1ccc(NC(=O)c2cc(Cl)ccc2O)c(Cl)c1 (stereo not drawn) | 21.9 | 18.1 | 100 | 
6 | 5.04 | CCCNc1ccc(NC(=O)c2cc(Cl)ccc2O)c(Cl)c1 | 22.5 | 4.5 | 100 | 
7 | 0.86 | CCN(CC)c1ccc(NC(=O)c2cc(Cl)ccc2O)c(Cl)c1 | 55.5 | 64.5 | 100 | 
8 | 0.45 | CC(C)[C@H](NC(=O)c1cc(Cl)ccc1O)C(=O)Nc1ccc([N+](=O)[O-])cc1Cl |  | 444 |  | 
9 | 4.65 | O=C(Nc1ccc(NCc2ccc3cn[nH]c3c2)cc1Cl)c1cc(Cl)ccc1O | 45.3 | 9.7 |  | 
10 | 1.92 | CN(C)c1ccc(NC(=O)c2cc(Cl)ccc2O)c(Cl)c1 | 85.1 | 44.3 | 100 | 
11 | 0.18 | O=C(Nc1cc(F)cc(C(F)(F)F)c1)c1cc(Cl)ccc1O |  | 667 |  | 
12 | 0.32 | CCCCCCC(C)Nc1ccc(NC(=O)c2cc(Cl)ccc2O)c(Cl)c1 (stereo not drawn) | 23.5 | 73.4 | 100 | 
13 | 1.34 | O=C(Nc1ccc(NC2CCCCC2)cc1Cl)c1cc(Cl)ccc1O | 68.3 | 51.1 |  | 
14 | 1.79 | O=C(Nc1ccc(NCc2cc(Cl)cc(C(F)(F)F)c2)cc1Cl)c1cc(Cl)ccc1O | 30.9 | 17.3 |  | 
15 | 1.16 | O=C(Nc1ccc(NCc2cc(F)cc(C(F)(F)F)c2)cc1Cl)c1cc(Cl)ccc1O | 30.9 | 26.7 | 100 | 
16 |  | CN1CCC(Oc2ccc(Cl)cc2C(=O)Nc2ccc(NC3CCCC3)cc2Cl)CC1 |  |  | 0 | 
17 |  | CC(=O)Nc1ccc(NC(=O)c2cc(Cl)ccc2O)c(Cl)c1 |  |  | 0 | 
18 |  | O=C(Nc1ccc(NCCCO)cc1Cl)c1cc(Cl)ccc1O | 106 |  |  | 
19 | 7.97 | O=C(NCc1ccc(NC2CCCC2)cc1Cl)c1cc(Cl)ccc1O | 28.3 | 3.6 |  | 
20 | 1.2 | O=C(Nc1ccc(NCc2ccc(Cl)cc2)cc1Cl)c1cc(Cl)ccc1O | 59.7 | 49.7 | 100 | 
21 |  | O=C(Nc1ccc(N(CCCO)CCCO)cc1Cl)c1cc(Cl)ccc1O | 114 |  |  | 
22 | 3.61 | COc1ccc(CNc2ccc(NC(=O)c3cc(Cl)ccc3O)c(Cl)c2)cc1 | 80.7 | 22.4 | 100 | 
23 | 0.88 | CC(C)Nc1ccc(NC(=O)c2cc(Cl)ccc2O)c(Cl)c1 | 11 | 12.5 | 100 | 
24 | 2.72 | Cc1ccc(O)c(C(=O)Nc2ccc(NC3CCCC3)cc2Cl)c1 | 30.9 | 11.4 |  | 
25 | 1.38 | O=C(Nc1ccc(NCC2CC2)cc1Cl)c1cc(Cl)ccc1O | 14.4 | 10.4 | 100 | 
26 | 2.66 | O=C(Nc1ccc(NCc2ccncc2)cc1Cl)c1cc(Cl)ccc1O | 65.3 | 24.6 | 100 | 

Row | IC50 [1] [µM] | Compound | CC50 at 48 h [2] [µM] | selectivity ratio at 48 h [3] | inhibition at 10 µM [4] [%] | other results
27 | 1.84 | O=C(Nc1ccc(NCc2ccc(Br)cc2)cc1Cl)c1cc(Cl)ccc1O | 40.9 | 22.2 | 100 | 
28 | 2.6 | O=C(Nc1ccc(NC2CCCC2)cc1)c1cc(Cl)ccc1O | 10 | 3.9 |  | 
29 | 0.74 | CC1(ON(c2ccc(NC(=O)c3cc(Cl)ccc3O)c(Cl)c2)C2(C)CCCC2)CCCC1 | 18 | 24.3 | 100 | 
30 | 2.26 | O=C(Nc1ccc(NCc2cccc(Br)n2)cc1Cl)c1cc(Cl)ccc1O | 92.3 | 40.8 | 100 | 
31 | 0.88 | O=C(Nc1ccc(NCc2cccc(C(F)(F)F)c2)cc1Cl)c1cc(Cl)ccc1O | 13.3 | 15.2 | 100 | 
32 | 2.58 | O=C(Nc1ccc(NCc2ccc(Br)s2)cc1Cl)c1cc(Cl)ccc1O | 20.7 | 8 | 100 | 
33 | 0.62 | O=C(Nc1ccc(N(CC2CC2)CC2CC2)cc1Cl)c1cc(Cl)ccc1O | 12.8 | 20.7 | 100 | 
34 | 1.24 | O=C(Nc1ccc(NCC2CCCC2)cc1Cl)c1cc(Cl)ccc1O | 21.5 | 17.3 | 100 | 
35 | 0.89 | CC(C)CNc1ccc(NC(=O)c2cc(Cl)ccc2O)c(Cl)c1 | 60 | 67.4 | 100 | 
36 | 1.43 | O=C(Nc1ccc(NCc2ccc(C(F)(F)F)cc2)cc1Cl)c1cc(Cl)ccc1O | 62.7 | 43.8 |  | 
37 | 1.21 | CC(C)(C)OC(=O)N1CCC(Nc2ccc(NC(=O)c3cc(Cl)ccc3O)c(Cl)c2)CC1 | 100 | 82.6 |  | 
38 | 3.4 | O=C(Nc1ccc(NCc2ccc(F)cc2)cc1Cl)c1cc(Cl)ccc1O | 54.4 | 16 | 100 | 
39 | 2.18 | CCNc1ccc(NC(=O)c2cc(Cl)ccc2O)c(Cl)c1 | 30.2 | 13.9 | 100 | 
40 | 3.83 | CC(C)[C@H](NC(=O)c1cc(Cl)ccc1O)C(=O)Nc1ccc(NC2CCCC2)cc1Cl | 111 | 28.9 |  | 
41 | 1.34 | O=C(Nc1cc(NC2CCCC2)ccc1F)c1cc(Cl)ccc1O | 44 | 32.8 |  | 
42 | 0.5 | O=C(Nc1ccc(NC2CCCC2)cc1Cl)c1cc(Cl)ccc1O | 92.9 | 186 | 100 | fold change (FC) [8]: 17.1; Activity [9]: 98.84%; Activity [10]: 14.42%; inhibition (INH) [6]: >=50%; Activity [7]: 100%
43 | 1.28 | O=C(Nc1ccc(NCc2cc(F)cc(Cl)c2)cc1Cl)c1cc(Cl)ccc1O | 11.1 | 8.7 |  | 
44 | 2.78 | CC(C)(C)OC(=O)NCCNc1ccc(NC(=O)c2cc(Cl)ccc2O)c(Cl)c1 | 25 | 9 | 100 | 
45 | 1.12 | O=C(Nc1ccc(NCc2cc(C(F)(F)F)cc(C(F)(F)F)c2)cc1Cl)c1cc(Cl)ccc1O | 92.8 | 82.9 | 100 | 
46 | 2.73 | CN(C)c1ccc(CNc2ccc(NC(=O)c3cc(Cl)ccc3O)c(Cl)c2)cc1 | 24.5 | 9 | 100 | 
47 | 0.67 | CCCN(CCC)c1ccc(NC(=O)c2cc(Cl)ccc2O)c(Cl)c1 | 10.7 | 16 | 100 | 
48 | 4.78 | O=C(Nc1ccc(NCc2cccnc2Cl)cc1Cl)c1cc(Cl)ccc1O | 100 | 21 | 100 | 
49 |  | CN1CCC(CNc2ccc(NC(=O)c3cc(Cl)ccc3O)c(Cl)c2)CC1 |  |  | 0 | 
50 | 2.52 | O=C(Nc1ccc(NCc2ccccc2)cc1Cl)c1cc(Cl)ccc1O | 19.7 | 7.8 | 100 | 
51 | 1.04 | O=C(Nc1ccc(NC2CCCC2)cc1F)c1cc(Cl)ccc1O | 51 | 49.1 |  | 

Row | Compound | IC50 [1] [µM] | CC50 at 48 h [2] [µM] | selectivity ratio at 48 h [3] | inhibition at 10 µM [4] [%] | other results
52 | O=C(Nc1ccc([N+](=O)[O-])cc1Cl)c1cc(Cl)ccc1O [NICLOSAMIDE] | 0.6 |  |  | 100 | Activity [5]: Non-Toxic; inhibition (INH) [6]: >=50%; Activity [7]: 1.7%
53 | O=C(Nc1ccc(NCc2cc(Cl)cc(Cl)c2)cc1Cl)c1cc(Cl)ccc1O | 1.43 | 13.3 | 9.3 | 100 | 
